Test [1] has as its system Staphylococcus aureus. As to the kind of experiment: Antibacterial activity against Staphylococcus aureus Smith. It is filed as functional. As to conditions: Staphylococcus aureus, Smith; read-out: MIC.
The subject of test [2] is Streptococcus pneumoniae. As to the kind of experiment: Antibacterial activity against Streptococcus pneumoniae IID553. As to conditions: Streptococcus pneumoniae, IID553; read-out: MIC. It is filed as functional.
Test [3] has as its system Enterococcus faecium. The experiment in a line: Antibacterial activity against VanA-resistant Enterococcus faecium. It is filed as functional. As to conditions: Enterococcus faecium; read-out: MIC.
Test [4] concerns Escherichia coli. As to the kind of experiment: Antibacterial activity against Escherichia coli ATCC 25922. Format: functional. As to conditions: Escherichia coli, ATCC 25922; read-out: MIC.
In test [5] the test system is Acinetobacter baumannii. As to the kind of experiment: Antibacterial activity against Acinetobacter baumannii IID876. Format: functional. As to conditions: Acinetobacter baumannii, IID876; read-out: MIC.
For test [6], the system named is Pseudomonas aeruginosa. The experiment in a line: Antibacterial activity against Pseudomonas aeruginosa PAO1. Format: functional. As to conditions: Pseudomonas aeruginosa, PAO1; read-out: MIC.
Test [7] has as its system Staphylococcus aureus. As to the kind of experiment: Antibacterial activity against Staphylococcus aureus Smith infected in iv dosed ICR mouse assessed as increase in survival rate administered at 1 hr post infection measured on day 7. Format: functional.
In test [8] the test system is Staphylococcus aureus. The experiment in a line: Antibacterial activity against Staphylococcus aureus Smith infected in po dosed ICR mouse assessed as increase in survival rate administered at 1 hr post infection measured on day 7. It is filed as functional.
Test [9] concerns Staphylococcus aureus. The experiment in a line: Ratio of MIC for quinolone-resistant Staphylococcus aureus MS5935 to MIC for […]. It is filed as functional.
The target of test [10] is Voltage-gated inwardly rectifying potassium channel KCNH2 (Homo sapiens, UniProt Q12809). As to the kind of experiment: Inhibition of MK499 binding to human ERG.
Voltage-gated inwardly rectifying potassium channel KCNH2, sequence (Q12809 whole entry): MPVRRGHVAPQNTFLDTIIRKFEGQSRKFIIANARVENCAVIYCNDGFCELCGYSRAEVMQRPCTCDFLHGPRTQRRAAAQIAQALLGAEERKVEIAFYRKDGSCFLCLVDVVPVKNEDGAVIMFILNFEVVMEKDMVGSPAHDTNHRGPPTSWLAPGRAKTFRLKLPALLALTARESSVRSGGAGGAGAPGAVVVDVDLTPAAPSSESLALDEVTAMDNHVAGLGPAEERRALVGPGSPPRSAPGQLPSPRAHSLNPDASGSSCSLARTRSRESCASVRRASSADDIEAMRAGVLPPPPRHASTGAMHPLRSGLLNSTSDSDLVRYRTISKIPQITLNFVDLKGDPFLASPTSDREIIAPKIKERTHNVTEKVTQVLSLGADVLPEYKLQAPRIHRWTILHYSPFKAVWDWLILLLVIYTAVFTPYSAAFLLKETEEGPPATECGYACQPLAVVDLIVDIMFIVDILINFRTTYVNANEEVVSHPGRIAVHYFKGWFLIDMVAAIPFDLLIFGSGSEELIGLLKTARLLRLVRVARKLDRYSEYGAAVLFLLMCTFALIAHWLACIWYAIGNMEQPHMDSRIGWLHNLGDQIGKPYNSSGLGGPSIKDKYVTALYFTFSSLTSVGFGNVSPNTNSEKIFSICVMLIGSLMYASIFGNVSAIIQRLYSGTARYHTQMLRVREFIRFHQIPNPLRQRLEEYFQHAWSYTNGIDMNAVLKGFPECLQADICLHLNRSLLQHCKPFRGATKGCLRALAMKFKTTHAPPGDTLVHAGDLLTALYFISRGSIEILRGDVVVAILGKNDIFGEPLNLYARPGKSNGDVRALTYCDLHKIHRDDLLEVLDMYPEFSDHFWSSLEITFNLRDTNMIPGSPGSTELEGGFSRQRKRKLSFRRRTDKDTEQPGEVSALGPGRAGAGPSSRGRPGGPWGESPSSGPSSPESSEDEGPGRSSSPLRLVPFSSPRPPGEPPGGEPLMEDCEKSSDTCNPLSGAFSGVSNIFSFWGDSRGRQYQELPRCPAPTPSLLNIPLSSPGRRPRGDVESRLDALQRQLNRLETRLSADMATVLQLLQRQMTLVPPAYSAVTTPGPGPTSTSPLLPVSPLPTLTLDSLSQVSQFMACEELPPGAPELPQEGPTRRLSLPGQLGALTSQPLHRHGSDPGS

In brackets after ≈: the same amount, converted by molar mass. Bounds are passed on as bounds.

For orientation: MIC means the lowest concentration found to suppress growth. Broadly, the ED50 is the dose that gives a 50% effect, or the effect in half of the subjects. Broadly, the IC50 is the concentration that inhibits the measured activity by half.

Take `COc1ccc2ncc(F)c(CCC34CCC(NCc5ccc6c(n5)NC(=O)CO6)(CC3)CO4)c2n1`: the MIC in test [1] amounted to 0.02 µg/mL (≈ 0.0405 µM); in test [2], 0.13 µg/mL (≈ 0.263 µM); in [3], 0.5 µg/mL (≈ 1.01 µM); in test [4], 1 µg/mL (≈ 2.03 µM); in test [5], 0.5 µg/mL (≈ 1.01 µM); in test [6] it was 4 µg/mL (≈ 8.1 µM).

`COc1ccc2ncc(F)c(CCC34CCC(NCc5nc6c(cc5Cl)OCC(=O)N6)(CC3)CO4)c2n1`: the MIC in test [1] stood at 0.02 µg/mL (≈ 0.0379 µM); in test [2] it was 0.25 µg/mL (≈ 0.473 µM); in test [3], 1 µg/mL (≈ 1.89 µM); in test [4] it was 2 µg/mL (≈ 3.79 µM); in test [5], 1 µg/mL (≈ 1.89 µM); in test [6], 2 µg/mL (≈ 3.79 µM).

Turning to `COc1ccc2ncc(F)c(CCC34CCC(NCc5nc6c(cc5F)OCC(=O)N6)(CC3)CO4)c2n1`, the MIC in [1] amounted to 0.02 µg/mL (≈ 0.0391 µM); in test [2] it was 0.13 µg/mL (≈ 0.254 µM); in test [3], 1 µg/mL (≈ 1.95 µM); in test [4], 2 µg/mL (≈ 3.91 µM); in test [5], 0.5 µg/mL (≈ 0.977 µM); in test [6], 8 µg/mL (≈ 15.6 µM). Moreover, the ED50 worked out at 2.5 mg/kg in test [7] and 3.9 mg/kg in test [8].

Consider `COc1ccc2ncc(F)c(CCC34CCC(NCc5nc6c(cc5OC)OCC(=O)N6)(CC3)CO4)c2n1`, for which the MIC in test [1] amounted to 4 µg/mL (≈ 7.64 µM); in [2] it was 8 µg/mL (≈ 15.3 µM); in test [3], 8 µg/mL (≈ 15.3 µM); in test [4], 8 µg/mL (≈ 15.3 µM); in test [5], 8 µg/mL (≈ 15.3 µM); in test [6] it was 8 µg/mL (≈ 15.3 µM). Besides, in test [9], the Ratio was less than 4.

Consider `COc1ccc2ncc(F)c(CCC34CCC(NCc5nc6c(cc5C)OCC(=O)N6)(CC3)CO4)c2n1`, for which the MIC in test [1] amounted to 0.06 µg/mL (≈ 0.118 µM); in test [2] it was 1 µg/mL (≈ 1.97 µM); in test [3], 1 µg/mL (≈ 1.97 µM); in test [4], 2 µg/mL (≈ 3.94 µM); in test [5], 0.5 µg/mL (≈ 0.985 µM); in test [6], 8 µg/mL (≈ 15.8 µM).

Take `COc1ccc2ncc(F)c(CCC34CCC(NCc5cc(C)c6c(n5)NC(=O)CO6)(CC3)CO4)c2n1`: the MIC came to 0.5 µg/mL (≈ 0.985 µM) in test [1]; 4 µg/mL (≈ 7.88 µM) in test [2]; 8 µg/mL (≈ 15.8 µM) in test [3]; 8 µg/mL (≈ 15.8 µM) in [4]; 4 µg/mL (≈ 7.88 µM) in test [5]; 32 µg/mL (≈ 63 µM) in test [6].

Turning to `COc1ccc2ncc(F)c(CCC34CCC(NCc5nc6c(c(C)c5C)OCC(=O)N6)(CC3)CO4)c2n1`, the MIC was determined as 1.06 µg/mL (≈ 2.03 µM) in [1]; 8 µg/mL (≈ 15.3 µM) in [2]; 2 µg/mL (≈ 3.83 µM) in test [3]; 2 µg/mL (≈ 3.83 µM) in test [4]; 4 µg/mL (≈ 7.67 µM) in test [5]; 16 µg/mL (≈ 30.7 µM) in test [6].

Turning to `CCc1c(CNC23CCC(CCc4c(F)cnc5ccc(OC)nc45)(CC2)OC3)nc2c(c1C)OCC(=O)N2`, the MIC in test [1] amounted to 2 µg/mL (≈ 3.73 µM); in test [2] it was 32 µg/mL (≈ 59.7 µM); in test [3] it was 32 µg/mL (≈ 59.7 µM); in test [4], 32 µg/mL (≈ 59.7 µM); in test [5] it was 32 µg/mL (≈ 59.7 µM); in [6], 32 µg/mL (≈ 59.7 µM).

In the case of `COc1ccc2ncc(F)c(CCC34CCC(NCc5nc6c(c(C)c5C(C)C)OCC(=O)N6)(CC3)CO4)c2n1`, the MIC in test [1], in test [2], in test [3], in [4], in [5] and in [6] was 32 µg/mL (≈ 58.2 µM) each time.

Consider `C=Cc1c(CNC23CCC(CCc4c(F)cnc5ccc(OC)nc45)(CC2)OC3)nc2c(c1C)OCC(=O)N2`, for which the MIC in test [1] is 0.25 µg/mL (≈ 0.469 µM); in test [2] it was 8 µg/mL (≈ 15 µM); in test [3] it was 32 µg/mL (≈ 60 µM); in test [4], 32 µg/mL (≈ 60 µM); in [5], 32 µg/mL (≈ 60 µM); in test [6], 32 µg/mL (≈ 60 µM).

As for `COc1ccc2ncc(F)c(CCC34CCC(NCc5nc6c(c(C)c5F)OCC(=O)N6)(CC3)CO4)c2n1`, the MIC came to 0.5 µg/mL (≈ 0.951 µM) in test [1]; 4 µg/mL (≈ 7.61 µM) in test [2]; 32 µg/mL (≈ 60.9 µM) in test [3]; 32 µg/mL (≈ 60.9 µM) in [4]; 32 µg/mL (≈ 60.9 µM) in test [5]; 32 µg/mL (≈ 60.9 µM) in [6].

`COc1ccc2ncc(F)c(CCC34CCC(NCc5ccc6c(n5)NC(=O)C(C)(C)O6)(CC3)CO4)c2n1`: the MIC in [1] worked out at 0.25 µg/mL (≈ 0.479 µM); in [2], 1 µg/mL (≈ 1.92 µM); in test [3], 2 µg/mL (≈ 3.83 µM); in [4], 2 µg/mL (≈ 3.83 µM); in test [5], 2 µg/mL (≈ 3.83 µM); in test [6], 2 µg/mL (≈ 3.83 µM). Besides, the Ratio in test [9] is recorded as less than 4. Also, the IC50 in [10] was determined as 3 µM.

(Values after ChEMBL document CHEMBL3603741, “Structure activity relationship of pyridoxazinone substituted RHS analogs of oxabicyclooctane-linked 1,5-naphthyridinyl novel bacterial topoisomerase inhibitors as broad-spectrum antibacterial agents (Part-6)” (Bioorg Med Chem Lett, 2015).)
